In patent US11746116B2, “Antibiotic resistance breakers” (KING'S COLLEGE LONDON, priority 2017, dated 2023):
≈ marks a conversion by molar mass, not a printed value. Read-outs that look alike come from different tables or passages of the source.

Legend:
Assay in all cases: MIC, microdilution broth method
VRE12204 = format: cell-based, Enterococcus faecium; conditions: VRE12204; in µg/mL
MSSA9144 = format: cell-based, Staphylococcus aureus; conditions: MSSA9144; in µg/mL
M6 = format: cell-based; conditions: M6; Normal (no PMBN); in µg/mL
EMRSA16 = format: cell-based, Staphylococcus aureus
EMRSA15 = format: cell-based, Staphylococcus aureus
VRE12201 = format: cell-based, Enterococcus faecalis; conditions: VRE12201; in µg/mL
VSE775 = format: cell-based, Enterococcus faecalis; conditions: VSE775; in µg/mL
Ab17978 = format: cell-based; conditions: Ab17978; Normal (no PMBN); in µg/mL

| SMILES | MIC (VRE12204) | MIC (MSSA9144) | MIC (EMRSA16; EMRSA16, in µg/mL) | MIC (EMRSA15; EMRSA15, in µg/mL) | MIC (VRE12201) | MIC (VSE775) | MIC, EMRSA16 (EMRSA16; EMRSA16 (Table 16, role of the terminal pyrimidine ring), in µg/mL) | MIC, EMRSA15 (EMRSA15; EMRSA15 (Table 16, role of the terminal pyrimidine ring), in µg/mL) | MIC (EMRSA16; Staphylococcus aureus (EMRSA16), Table 12, read-out: MIC) | MIC (EMRSA15; Staphylococcus aureus, Staphylococcus aureus (EMRSA15), Table 12, read-out: MIC) | MIC (M6) | MIC (Ab17978) | fold reduction (potentiation) in MIC compared to the parent fluoroquinolone (EMRSA16; EMRSA-16) | fold reduction (potentiation) in MIC compared to the parent fluoroquinolone (EMRSA15; EMRSA-15) |
| --- | --- | --- | --- | --- | --- | --- | --- | --- | --- | --- | --- | --- | --- | --- |
| O=C(O)c1cn(C2CC2)c2cc(N3CCN(Cc4cccc5c4CCCC5)CC3)c(F)cc2c1=O [ML-77-076] | 1-2 | 0.25 | 1-2 | 1 | 1-2 | 2 |  |  |  |  | 8 |  |  |  |
| CCn1cc(C(=O)O)c(=O)c2cc(F)c(N3CCN(Cc4ccc(-n5cccn5)cc4)CC3)cc21 [Compound 3.30, 7-(4-(4-(1H-pyrazol-1-yl)benzyl)piperazin-1-yl)-1-ethyl-6-fluoro oxo-1-4-dihydroquinoline-3-carboxylic acid] | 16 | 0.5 | 32 | 16-32 | 4-8 | 8 |  |  |  |  |  |  |  |  |
| CCn1cc(C(=O)O)c(=O)c2cc(F)c(N3CCN(c4cccc5ccccc45)CC3)cc21 [ML-77-169, 1-ethyl-6-fluoro-7-(4-(naphthalen-1-yl)piperazin-1-yl)-4-oxo-1,4-dihydroquinoline-3-carboxylic acid] | 1 | 2 | 1 | 1-2 | 2 | 2 |  |  |  |  |  |  |  |  |
| C[C@H]1COc2c(N3CC[C@@H](N)C3)c(F)cc3c(=O)c(C(=O)O)cn1c23 [KSN-L44] |  |  |  |  |  |  | 32 | 32 |  |  |  |  |  |  |
| O=C(O)c1cn(C2CC2)c2cc(N3CCN(Cc4ccc(F)c5ccccc45)CC3)c(F)cc2c1=O [ML-77-048] |  | 4 | 8 | 4 | 8 | 8 |  |  |  |  | 64 | 8 |  |  |
| CCn1cc(C(=O)O)c(=O)c2cc(F)c(N3CCN(Cc4ccc(-c5noc(C)n5)cc4)CC3)cc21 [Compound 3.36, 1-ethyl-6-fluoro-7-(4-(4-(5-methyl-1,2,4-oxadiazol-3-yl)-benzyl)piperazin-1-yl)-4-oxo-1,4-dihydroquinone-3-carboxylic acid] | 8 | 0.25 | 32 | 16-32 | 4 | 8 |  |  |  |  |  |  |  |  |
| O=C(O)c1cn(C2CC2)c2cc(N3CCN(Cc4ccc(I)cc4)CC3)c(F)cc2c1=O | 4 | 0.12-0.25 | 4 | 4 | 1-2 | 2 |  |  |  |  |  |  |  |  |
| CCn1cc(C(=O)O)c(=O)c2cc(F)c(N3CCNCC3)nc21 [Enoxacin, enoxacin, reference compound] | 4-8 | 2 |  |  | 8 | 16 |  |  |  |  |  |  |  |  |
| O=C(O)c1cn(C2CC2)c2cc(N3CCN(Cc4cccc5cccnc45)CC3)c(F)cc2c1=O [ML-77-052] |  | 0.5 |  | 64 | 2 | 4 |  |  |  |  | 4 | 0.25 |  |  |
| O=C(O)c1cn(C2CC2)c2cc(N3CCN(Cc4ccc(-n5cncn5)cc4)CC3)c(F)cc2c1=O [Compound 2.36, 7-(4-(4-(1H-1,2,4-triazol-1-yl)benzyl)piperazin-1-yl)-1-cyclopropyl-6-fluoro-4-oxo-1,4-dihydroquinoline-3-carboxylic acid] | 8 | 0.12 | 16 | 16-32 | 0.5 | 1 |  |  |  |  |  |  |  |  |
| O=C(O)c1cn(C2CC2)c2cc(N3CCN(Cc4cc(=O)[nH]c5ccccc45)CC3)c(F)cc2c1=O [ML-77-058] |  | 0.25-1 |  |  | 0.5-4 |  |  |  |  |  | 4-32 |  |  |  |
| CCn1cc(C(=O)O)c(=O)c2cc(F)c(N3CCN(Cc4ccc(-n5cncn5)cc4)CC3)cc21 [Compound 3.32, 7-(4-(4-(1H-1,2,4-triazol-1-yl)benzyl)piperazin-1-yl)-1-ethyl-6-fluoro-4-oxo-1,4-dihydroquinoline-3-carboxylic acid] | 16 | 1 |  |  | 8 | 8 |  |  |  |  |  |  |  |  |
| CCn1cc(C(=O)O)c(=O)c2cc(F)c(N3CCN(Cc4cccc5ccccc45)CC3)nc21 [ML-77-025] | 4 | 0.5-1 | 2-4 | 2-8 | 8 | 16 |  |  |  |  |  |  | 64-128 fold | 64-128 fold |

The next lines start with results.

| MIC (VRE12204) | MIC (MSSA9144) | MIC (EMRSA16; EMRSA16, in µg/mL) | MIC (EMRSA15; EMRSA15, in µg/mL) | MIC (VRE12201) | MIC (VSE775) | MIC, EMRSA16 (EMRSA16; EMRSA16 (Table 16, role of the terminal pyrimidine ring), in µg/mL) | MIC, EMRSA15 (EMRSA15; EMRSA15 (Table 16, role of the terminal pyrimidine ring), in µg/mL) | MIC (EMRSA16; Staphylococcus aureus (EMRSA16), Table 12, read-out: MIC) | MIC (EMRSA15; Staphylococcus aureus, Staphylococcus aureus (EMRSA15), Table 12, read-out: MIC) | SMILES | MIC (M6) | MIC (Ab17978) | fold reduction (potentiation) in MIC compared to the parent fluoroquinolone (EMRSA16; EMRSA-16) | fold reduction (potentiation) in MIC compared to the parent fluoroquinolone (EMRSA15; EMRSA-15) |
| --- | --- | --- | --- | --- | --- | --- | --- | --- | --- | --- | --- | --- | --- | --- |
| 1 | 1 | 1 | 1-2 | 0.25-0.5 | 2 |  |  |  |  | O=C(O)c1cn(C2CC2)c2cc(N3CCN(c4cccc5ccccc45)CC3)c(F)cc2c1=O [ML-77-168] |  |  |  |  |
| 4 | 0.5 | 4 | 2-4 | 2 | 4 |  |  |  |  | O=C(O)c1cn(C2CC2)c2cc(N3CCN(CCc4cccc5ccccc45)CC3)c(F)cc2c1=O [ML-77-171] |  |  |  |  |
| 4-8 | <0.12 | 8 | 4 | 0.5 | 0.5 |  |  |  |  | O=C(O)c1cn(C2CC2)c2cc(N3CCN(Cc4ccc(-c5csnn5)cc4)CC3)c(F)cc2c1=O [ML-77-157] | 1 | 0.25-0.5 |  |  |
| 1-2 | 0.25 | 2 | 2 | 0.5-2 | 4 |  |  |  |  | CCn1cc(C(=O)O)c(=O)c2cc(F)c(N3CCN(Cc4cccc5ccsc45)CC3)cc21 [ML-77-079] | 32 |  |  |  |
| 1-2 | 1 | 2 | 2 | 2 | 2 |  |  |  |  | CCn1cc(C(=O)O)c(=O)c2cc(F)c(N3CCN(Cc4cccc5c4CCCC5)CC3)cc21 [ML-77-077] | 64 | 32-128 |  |  |
|  |  |  |  |  |  |  |  | 16 µg/mL (≈ 35 µM) | 8 µg/mL (≈ 17.5 µM) | C[C@H]1COc2c(N3CCCN(c4ncc(F)cn4)CC3)c(F)cc3c(=O)c(C(=O)O)cn1c23 [ML-83-034] |  |  |  |  |
| 2 | 2 | 4 | 2 | 4 | 2 |  |  |  |  | CCn1cc(C(=O)O)c(=O)c2cc(F)c(N3CCN(Cc4ccc(-c5ccccc5)cc4)CC3)cc21 [ML-77-134, 7-(4-([1,1′-biphenyl]-4-ylmethyl)piperazin-1-yl)-1-ethyl-6-fluoro-4-oxo-1,4-dihydroquinoline-3-carboxylic acid] | 64 |  |  |  |
| 4 | 2-4 | 4 | 4 | 4-8 | 4-8 |  |  |  |  | CCn1cc(C(=O)O)c(=O)c2cc(F)c(N3CCN(CCc4cccc5ccccc45)CC3)cc21 [ML-77-173, 1-ethyl-6-fluoro-7-(4-(2-(naphthalen-1-yl)ethyl)piperazin-1-yl)-4-oxo-1,4-dihydroquinoline-3-carboxylic acid] |  |  |  |  |
| 1-2 | 0.125-1 | 2-4 | 4 | 0.5-1 | 1-2 |  |  |  |  | C[C@H]1COc2c(N3CCN(Cc4cccc5ccccc45)CC3)c(F)cc3c(=O)c(C(=O)O)cn1c23 [ML-77-140, (S)-9-fluoro-3-methyl-10-(4-(naphthalen-1-ylmethyl)piperazin-1-yl)-7-oxo-2,3-dihydro-7H-[1,4]oxazino[2,3,4-ij]quinoline-6-carboxylic acid] |  |  |  |  |
